Results from ChEMBL document CHEMBL6078713, “Synthesis and mechanistic studies of 4-aminoquinoline-Isatin molecular hybrids and Schiff's bases as promising antimicrobial agents” (Eur J Med Chem, 2025).

Key:
[1] = tested on: Enterococcus faecalis; assay: Antibacterial activity against Enterococcus faecalis MTCC 439 assessed as diameter of zone of inhibition at 500 ug/ml by agar disk diffusion method; type: functional; settings: read-out: DIZ
[2] = tested on: Pseudomonas aeruginosa; assay: Antibacterial activity against Pseudomonas aeruginosa MTCC 2453 assessed as diameter of zone of inhibition at 500 ug/ml by agar disk diffusion method; type: functional; settings: read-out: DIZ
[3] = tested on: Escherichia coli; assay: Antibacterial activity against Escherichia coli MTCC 443 assessed as diameter of zone of inhibition at 500 ug/ml by agar disk diffusion method; type: functional; settings: read-out: DIZ
[4] = tested on: Bacillus subtilis; assay: Antibacterial activity against Bacillus subtilis MTCC 736 assessed as diameter of zone of inhibition at 500 ug/ml by agar disk diffusion method; type: functional; settings: read-out: DIZ
[5] = tested on: Salmonella typhi; assay: Antibacterial activity against Salmonella typhi assessed as diameter of zone of inhibition at 500 ug/ml by agar disk diffusion method; type: functional, Salmonella enterica subsp. enterica serovar Typhi; settings: Salmonella enterica, read-out: DIZ
[6] = tested on: Staphylococcus aureus; assay: Antibacterial activity against Staphylococcus aureus MTCC 902 assessed as diameter of zone of inhibition at 500 ug/ml by agar disk diffusion method; type: functional; settings: read-out: DIZ

Structure (SMILES)	zone of inhibition at 500 µg/mL [1]	zone of inhibition at 500 µg/mL [2]	zone of inhibition at 500 µg/mL [3]	zone of inhibition at 500 µg/mL [4]	zone of inhibition at 500 µg/mL [5]	zone of inhibition at 500 µg/mL [6]
COc1ccc2c(c1)/C(=N/CCNc1ccnc3cc(Cl)ccc13)C(=O)N2	10 mm	11 mm	–	–	–	–
Clc1ccc2c(NCC/N=C/c3ccccc3)ccnc2c1	8 mm	8 mm	10 mm	7 mm	6 mm	8 mm
FC(F)(F)c1ccc(/C=N/CCNc2ccnc3cc(Cl)ccc23)cc1	8 mm	8 mm	10 mm	7 mm	9 mm	7 mm
O=[N+]([O-])c1cccc(/C=N/CCNc2ccnc3cc(Cl)ccc23)c1	8 mm	6 mm	9 mm	6 mm	9 mm	8 mm
O=C1Nc2c(cccc2[N+](=O)[O-])/C1=N/CCNc1ccnc2cc(Cl)ccc12	–	–	–	11 mm	–	8 mm
Clc1ccc(/C=N/CCNc2ccnc3cc(Cl)ccc23)cc1	6 mm	7 mm	6 mm	7 mm	6 mm	–
Cc1ccc(/C=N/CCNc2ccnc3cc(Cl)ccc23)cc1	6 mm	8 mm	8 mm	–	6 mm	6 mm
Clc1ccc2c(NCC/N=C/c3cccs3)ccnc2c1	8 mm	6 mm	9 mm	8 mm	8 mm	7 mm
COc1ccc(/C=N/CCNc2ccnc3cc(Cl)ccc23)cc1	8 mm	8 mm	9 mm	6 mm	9 mm	8 mm
O=C1Nc2cc(F)ccc2/C1=N/CCNc1ccnc2cc(Cl)ccc12	–	–	–	–	7 mm	7 mm
Clc1ccc2c(NCC/N=C/c3ccccc3Cl)ccnc2c1	9 mm	9 mm	8 mm	8 mm	9 mm	7 mm
Cc1cc(C)c2c(c1)/C(=N/CCNc1ccnc3cc(Cl)ccc13)C(=O)N2	–	–	11 mm	–	–	6 mm
Oc1ccc(/C=N/CCNc2ccnc3cc(Cl)ccc23)cc1	6 mm	10 mm	10 mm	8 mm	8 mm	9 mm
COc1ccc2c(c1)NC(=O)/C2=N\CCNc1ccnc2cc(Cl)ccc12	–	–	16 mm	–	10 mm	–
Clc1ccc2c(NCC/N=C/c3c[nH]c4ccccc34)ccnc2c1	9 mm	7 mm	10 mm	8 mm	9 mm	8 mm
COc1cc(/C=N/CCNc2ccnc3cc(Cl)ccc23)ccc1O	7 mm	7 mm	9 mm	–	6 mm	6 mm
Clc1ccc2c(NCC/N=C/c3ccc(Br)cc3)ccnc2c1	8 mm	–	–	–	–	–
O=C1Nc2ccc(Br)cc2/C1=N/CCNc1ccnc2cc(Cl)ccc12	–	–	11 mm	–	11 mm	–
O=C1Nc2ccccc2/C1=N/CCNc1ccnc2cc(Cl)ccc12	–	–	11 mm	10 mm	–	–
